Data from the NIST ThermoML archive (doi:10.1016/j.jct.2013.01.006).
± gives the expanded uncertainty stated by the source.

Details: Liquid, Vibrating tube method

FCC(F)(F)F [1,1,1,2-tetrafluoroethane]
Details | mass density [kg/m3]
283.52 K, 1010 kPa | 1262.83 ± 0.53
283.53 K, 5000 kPa | 1279.7 ± 0.52
283.54 K, 10000 kPa | 1298.2 ± 0.51
283.54 K, 20000 kPa | 1329.16 ± 0.58
283.54 K, 39990 kPa | 1376.78 ± 0.81
283.54 K, 60010 kPa | 1413.66 ± 1.2
283.54 K, 80020 kPa | 1444.29 ± 1.6
303.26 K, 1000 kPa | 1188.74 ± 0.7
303.27 K, 5000 kPa | 1212.6 ± 0.6
303.28 K, 10000 kPa | 1237.15 ± 0.54
303.29 K, 19980 kPa | 1275.91 ± 0.56
303.29 K, 40010 kPa | 1332.33 ± 0.75
303.3 K, 60000 kPa | 1374.15 ± 1.1
303.3 K, 79980 kPa | 1408.2 ± 1.5
323.07 K, 1280 kPa | 1102.44 ± 1
323.08 K, 5000 kPa | 1136.68 ± 0.78
323.08 K, 10000 kPa | 1170.98 ± 0.62
323.09 K, 20000 kPa | 1220.67 ± 0.56
323.11 K, 60000 kPa | 1335.02 ± 0.95
323.11 K, 80000 kPa | 1372.84 ± 1.4
323.12 K, 40000 kPa | 1287.6 ± 0.69
343.02 K, 10000 kPa | 1097 ± 0.78
343.02 K, 20000 kPa | 1162.16 ± 0.58
343.02 K, 39990 kPa | 1241.93 ± 0.63
343.02 K, 60010 kPa | 1295.73 ± 0.86
343.03 K, 4990 kPa | 1045.24 ± 1.2
343.03 K, 80010 kPa | 1337.58 ± 1.3
343.05 K, 2090 kPa | 997.14 ± 1.7
362.95 K, 5000 kPa | 921.91 ± 2.2
362.95 K, 10000 kPa | 1012.79 ± 1.1
362.96 K, 20000 kPa | 1101.23 ± 0.65
362.97 K, 40000 kPa | 1196.59 ± 0.6
362.98 K, 60000 kPa | 1257.2 ± 0.78
362.99 K, 80000 kPa | 1302.95 ± 1.2

F/C=C/C(F)(F)F [trans-1,3,3,3-tetrafluoropropene]
Details | mass density [kg/m3]
283.55 K, 99990 kPa | 1403.02 ± 1.8
283.56 K, 30000 kPa | 1295.8 ± 0.59
283.56 K, 40000 kPa | 1316.15 ± 0.69
283.56 K, 50000 kPa | 1334.15 ± 0.82
283.56 K, 60000 kPa | 1350.35 ± 0.99
283.56 K, 69990 kPa | 1365.2 ± 1.2
283.56 K, 79990 kPa | 1378.71 ± 1.4
283.56 K, 90000 kPa | 1391.26 ± 1.6
283.57 K, 1000 kPa | 1211.68 ± 0.52
283.57 K, 3000 kPa | 1219.58 ± 0.5
283.57 K, 5000 kPa | 1227.04 ± 0.49
283.57 K, 10000 kPa | 1243.89 ± 0.48
283.57 K, 15000 kPa | 1258.79 ± 0.48
283.57 K, 20000 kPa | 1272.23 ± 0.51
283.57 K, 25000 kPa | 1284.48 ± 0.55
293.41 K, 1000 kPa | 1180.6 ± 0.55
293.41 K, 3000 kPa | 1189.81 ± 0.53
293.41 K, 5000 kPa | 1198.39 ± 0.51
293.41 K, 10000 kPa | 1217.4 ± 0.49
293.41 K, 15000 kPa | 1234.07 ± 0.49
293.41 K, 20000 kPa | 1248.82 ± 0.5
293.41 K, 25000 kPa | 1262.23 ± 0.53
293.41 K, 30000 kPa | 1274.5 ± 0.57
293.41 K, 40000 kPa | 1296.38 ± 0.67
293.41 K, 50000 kPa | 1315.5 ± 0.79
293.41 K, 60000 kPa | 1332.69 ± 0.94
293.41 K, 69990 kPa | 1348.45 ± 1.1
293.41 K, 79990 kPa | 1362.63 ± 1.3
293.41 K, 100010 kPa | 1387.95 ± 1.7
293.42 K, 90000 kPa | 1375.74 ± 1.5
303.38 K, 1000 kPa | 1149.74 ± 0.65
303.38 K, 3000 kPa | 1160.58 ± 0.59
303.39 K, 5000 kPa | 1170.47 ± 0.55
303.39 K, 10000 kPa | 1192.27 ± 0.51
303.39 K, 15000 kPa | 1210.87 ± 0.5
303.39 K, 20000 kPa | 1227.2 ± 0.51
303.39 K, 25000 kPa | 1241.85 ± 0.52
303.39 K, 30000 kPa | 1255.15 ± 0.56
303.39 K, 40000 kPa | 1278.68 ± 0.64
303.39 K, 60000 kPa | 1317.3 ± 0.9
303.4 K, 50000 kPa | 1299.13 ± 0.76
303.4 K, 70000 kPa | 1333.74 ± 1.1
303.4 K, 80010 kPa | 1348.59 ± 1.3
303.4 K, 90000 kPa | 1362.33 ± 1.5
303.4 K, 100000 kPa | 1375.04 ± 1.6
313.33 K, 1000 kPa | 1112.39 ± 0.71
313.33 K, 3000 kPa | 1125.51 ± 0.65
313.34 K, 5000 kPa | 1137.25 ± 0.6
313.34 K, 10000 kPa | 1162.32 ± 0.54
313.35 K, 15000 kPa | 1183.22 ± 0.51
313.35 K, 20000 kPa | 1201.24 ± 0.5
313.35 K, 25000 kPa | 1217.24 ± 0.52
313.36 K, 30000 kPa | 1231.65 ± 0.54
313.36 K, 40000 kPa | 1256.89 ± 0.62
313.36 K, 80000 kPa | 1330.76 ± 1.2
313.36 K, 90000 kPa | 1345.06 ± 1.4
313.36 K, 99990 kPa | 1358.3 ± 1.6
313.37 K, 50000 kPa | 1278.66 ± 0.72
313.37 K, 60000 kPa | 1297.92 ± 0.85
313.37 K, 69990 kPa | 1315.13 ± 1.1
323.14 K, 1000 kPa | 1074.03 ± 0.83
323.15 K, 3000 kPa | 1090.3 ± 0.76
323.15 K, 5000 kPa | 1104.41 ± 0.67
323.15 K, 10000 kPa | 1133.63 ± 0.58
323.15 K, 15000 kPa | 1157.19 ± 0.53
323.15 K, 20000 kPa | 1177.23 ± 0.51
323.15 K, 25000 kPa | 1194.71 ± 0.51
323.15 K, 30000 kPa | 1210.33 ± 0.53
323.15 K, 40000 kPa | 1237.43 ± 0.6
323.15 K, 50000 kPa | 1260.55 ± 0.69
323.15 K, 60000 kPa | 1280.78 ± 0.81
323.15 K, 69990 kPa | 1299.16 ± 1
323.15 K, 80000 kPa | 1315.46 ± 1.2
323.15 K, 90000 kPa | 1330.39 ± 1.3
323.15 K, 100000 kPa | 1344.16 ± 1.5
333.06 K, 3000 kPa | 1051.57 ± 0.91
333.06 K, 5000 kPa | 1068.99 ± 0.76
333.07 K, 10000 kPa | 1103.45 ± 0.64
333.07 K, 15000 kPa | 1130.26 ± 0.56
333.07 K, 20000 kPa | 1152.47 ± 0.53
333.07 K, 25000 kPa | 1171.67 ± 0.51
333.08 K, 30000 kPa | 1188.58 ± 0.52
333.08 K, 40000 kPa | 1217.68 ± 0.57
333.08 K, 50000 kPa | 1242.22 ± 0.66
333.09 K, 60000 kPa | 1263.59 ± 0.77
333.09 K, 70000 kPa | 1282.87 ± 1
333.1 K, 79990 kPa | 1299.88 ± 1.1
333.1 K, 89990 kPa | 1315.41 ± 1.3
333.1 K, 99990 kPa | 1329.71 ± 1.5
343.06 K, 3000 kPa | 1007.98 ± 1.2
343.07 K, 5000 kPa | 1030.29 ± 0.91
343.07 K, 10000 kPa | 1071.6 ± 0.71
343.07 K, 15000 kPa | 1102.25 ± 0.6
343.07 K, 20000 kPa | 1127.03 ± 0.54
343.07 K, 25000 kPa | 1148.05 ± 0.52
343.07 K, 30000 kPa | 1166.47 ± 0.51
343.07 K, 40000 kPa | 1197.69 ± 0.55
343.07 K, 50000 kPa | 1223.79 ± 0.64
343.07 K, 60000 kPa | 1246.3 ± 0.74
343.07 K, 70000 kPa | 1266.4 ± 0.99
343.08 K, 79990 kPa | 1284.18 ± 1.1
343.08 K, 90000 kPa | 1300.35 ± 1.2
343.08 K, 100000 kPa | 1315.2 ± 1.4
352.97 K, 3000 kPa | 957.49 ± 1.6
352.97 K, 60000 kPa | 1229.3 ± 0.71
352.97 K, 70000 kPa | 1250.62 ± 0.97
352.97 K, 79990 kPa | 1269.19 ± 1.1
352.97 K, 89990 kPa | 1285.98 ± 1.2
352.97 K, 99990 kPa | 1301.43 ± 1.4
352.98 K, 5000 kPa | 987.78 ± 1.1
352.98 K, 15000 kPa | 1073.64 ± 0.65
352.98 K, 20000 kPa | 1101.36 ± 0.57
352.98 K, 25000 kPa | 1124.45 ± 0.53
352.98 K, 30000 kPa | 1144.41 ± 0.51
352.98 K, 40000 kPa | 1177.85 ± 0.54
352.98 K, 50000 kPa | 1205.56 ± 0.61
352.99 K, 10000 kPa | 1038.43 ± 0.82
362.93 K, 3000 kPa | 894.35 ± 2.5
362.93 K, 5000 kPa | 939.3 ± 1.5
362.94 K, 10000 kPa | 1003.24 ± 0.96
362.94 K, 15000 kPa | 1044.15 ± 0.72
362.94 K, 20000 kPa | 1075.24 ± 0.6
362.94 K, 25000 kPa | 1100.62 ± 0.54
362.94 K, 30000 kPa | 1122.31 ± 0.51
362.95 K, 40000 kPa | 1158.16 ± 0.53
362.95 K, 50000 kPa | 1187.53 ± 0.58
362.95 K, 60000 kPa | 1212.48 ± 0.68
362.95 K, 70010 kPa | 1234.72 ± 0.95
362.95 K, 80000 kPa | 1254.07 ± 1
362.96 K, 90000 kPa | 1271.47 ± 1.1
362.96 K, 99990 kPa | 1287.46 ± 1.3
